Laboratory results: patent US9593108B2, “Compounds and methods for antiviral treatment” (PTC Therapeutics, Inc., priority 2009, dated 2017)

System: HCV replicon RNA (GenBank Accession No. AJ242654)
Assay: HCV Replicon Assay (replicon RNA reduction and/or Fluc reporter signal)
Format: cell-based, Hepatitis C virus
Conditions: replicon-containing cells cultured with test compound for up to 3 days
Source text: The lack of reliable and readily accessible cell-culture and small animal models permissive for HCV replication has limited the development of new anti-HCV agents. Self-replicating subgenomic HCV systems, termed HCV replicons, have been described and have been widely used to assess the efficacy of anti-HCV inhibitors (see Blight K J, et al., 2000, Efficient initiation of HCV RNA replication in cell culture. Science 290:1972-1974; Blight K J, et al., 2002, Highly permissive cell lines for subgenomic and genomic hepatitis C virus RNA replication. J Virol 76:13001-13014; Ikeda M, et al., 2002. Selectable subgenomic and genome-length dicistronic RNAs derived from an infectious molecular clone of the HCV-N strain of hepatitis C virus replicate efficiently in cultured Huh7 cells. J Virol 76:2997-3006; Lohmann V, et al., 1999, Replication of subgenomic hepatitis C virus RNAs in a hepatoma cell line. Science 285:110-113; Pietschmann T, et al., 2002, Persistent and transient replication of full-length hepatitis C virus genomes in cell culture. J Virol 76:4008-4021; and, Pietschmann T, et al., 2001, Characterization of cell lines carrying self-replicating hepatitis C virus RNAs. J Virol 75:1252-1264).
As described in U.S. Pat. No. 6,630,343, HCV inhibitors are analyzed in the bicistronic replicon by quantitating replicon RNA (GenBank Accession No. AJ242654) reduction and/or the Fluc reporter signal. Replicon-containing cells may be cultured with a test compound of the present invention for up to 3 days. Interferon (IFN) is used as a positive control. In general, the replicon IC50 values shown in Table 1 represent IC50 values determined by replicon RNA reduction.

| Compound | IC50 [nM] | IC50 (Hepatitis C virus, 72 h) [nM] |
| --- | --- | --- |
| 6-(3,6-dicyano-1-cyclobutyl-1H-pyrrolo[2,3-b]pyridin-2-yl)-N-[(2S)-1,1,1-trifluoropropan-2-yl]pyridine-3-sulfonamide [Cpd 241] | < 500 | – |
| COc1ccc2c(n1)c(C#N)c(-c1ccc(S(=O)(=O)N[C@@H](C)C(F)(F)F)cn1)n2C1CCC1 [Cpd 20, 6-(3-cyano-1-cyclobutyl-5-methoxy-1H-pyrrolo[3,2-b]pyridin-2-yl)-N-[(2S)-1,1,1-trifluoropropan-2-yl]pyridine-3-sulfonamide] | – | 500 to 2000 |
| COc1cnc2c(c1)c(C#N)c(-c1ccc(S(=O)(=O)N[C@@H](C)C(F)(F)F)cn1)n2C1CCC1 [Cpd 22, 6-(3-cyano-1-cyclobutyl-5-methoxy-1H-pyrrolo[2,3-b]pyridin-2-yl)-N-[(2S)-1,1,1-trifluoropropan-2-yl]pyridine-3-sulfonamide] | – | 500 to 2000 |
| COc1ncc2c(C#N)c(-c3ccc(S(=O)(=O)N[C@@H](C)C(F)(F)F)cn3)n(C3CCC3)c2n1 [Cpd 38, 6-(5-cyano-7-cyclobutyl-2-methoxy-7H-pyrrolo[2,3-d]pyrimidin-6-yl)-N-[(2S)-1,1,1-trifluoropropan-2-yl]pyridine-3-sulfonamide] | – | < 500 |
| COc1ncc2c(C#N)c(-c3ccc(S(=O)(=O)N[C@H](C)C(F)(F)F)cn3)n(C3CCC3)c2n1 [Cpd 39, 6-(5-cyano-7-cyclobutyl-2-methoxy-7H-pyrrolo[2,3-d]pyrimidin-6-yl)-N-[(2R)-1,1,1-trifluoropropan-2-yl]pyridine-3-sulfonamide] | – | 2000 to 5000 |
| COc1ccc2c(C#N)c(-c3ccc(S(=O)(=O)NC(CF)CF)cc3)n(C3CCC3)c2n1 [Cpd 43, 4-(3-cyano-1-cyclobutyl-6-methoxy-1H-pyrrolo[2,3-b]pyridin-2-yl)-N-(1,3-difluoropropan-2-yl)benzenesulfonamide] | – | < 500 |
| COc1cnc2c(c1)c(C#N)c(-c1ccc(S(=O)(=O)N[C@H](C)C(F)(F)F)cn1)n2C1CCC1 [Cpd 48, 6-(3-cyano-1-cyclobutyl-5-methoxy-1H-pyrrolo[2,3-b]pyridin-2-yl)-N-[(2R)-1,1,1-trifluoropropan-2-yl]pyridine-3-sulfonamide] | – | < 500 |
| Cc1ccc2c(C#N)c(-c3ccc(S(=O)(=O)N[C@H](C)C(F)(F)F)cc3)n(C3CCC3)c2n1 [Cpd 91, 4-(3-cyano-1-cyclobutyl-6-methyl-1H-pyrrolo[2,3-b]pyridin-2-yl)-N-[(2R)-1,1,1-trifluoropropan-2-yl]benzenesulfonamide] | – | < 500 |
| Cc1ccc2c(C#N)c(-c3ccc(S(=O)(=O)N[C@@H](C)C(F)(F)F)cn3)n(C3CCC3)c2n1 [Cpd 92, 6-(3-cyano-1-cyclobutyl-6-methyl-1H-pyrrolo[2,3-b]pyridin-2-yl)-N-[(2S)-1,1,1-trifluoropropan-2-yl]pyridine-3-sulfonamide] | – | < 500 |
| Cc1ccc2c(C#N)c(-c3ccc(S(=O)(=O)N[C@H](C)C(F)(F)F)cn3)n(C3CCC3)c2n1 [Cpd 93, 6-(3-cyano-1-cyclobutyl-6-methyl-1H-pyrrolo[2,3-b]pyridin-2-yl)-N-[(2R)-1,1,1-trifluoropropan-2-yl]pyridine-3-sulfonamide] | – | < 500 |
| Cc1ccc2c(C#N)c(-c3ncc(S(=O)(=O)NC(C)C)cn3)n(C3CCC3)c2n1 [Cpd 95, 2-(3-cyano-1-cyclobutyl-6-methyl-1H-pyrrolo[2,3-b]pyridin-2-yl)-N-(propan-2-yl)pyrimidine-5-sulfonamide] | – | 500 to 2000 |
| C[C@@H](NS(=O)(=O)c1cnc(-c2c(C#N)c3cc(C4CC4)cnc3n2C2CCC2)nc1)C(F)(F)F [Cpd 120, 2-(3-cyano-1-cyclobutyl-5-cyclopropyl-1H-pyrrolo[2,3-b]pyridin-2-yl)-N-[(2R)-1,1,1-trifluoropropan-2-yl]pyrimidine-5-sulfonamide] | – | < 500 |
| N#Cc1c(-c2ccc(S(=O)(=O)NC3(C(F)(F)F)CC3)cc2)n(C2CCC2)c2ncc(C3CC3)cc12 [Cpd 123, 4-(3-cyano-1-cyclobutyl-5-cyclopropyl-1H-pyrrolo[2,3-b]pyridin-2-yl)-N-[1-(trifluoromethyl)cyclopropyl]benzenesulfonamide] | – | < 500 |
| CC(C)(C)NS(=O)(=O)c1ccc(-c2c(C#N)c3cc(C4CC4)cnc3n2C2CCC2)nc1 [Cpd 126, N-tert-butyl-6-(3-cyano-1-cyclobutyl-5-cyclopropyl-1H-pyrrolo[2,3-b]pyridin-2-yl)pyridine-3-sulfonamide] | – | < 500 |
| N#Cc1c(-c2ccc(S(=O)(=O)NC(CF)CF)cn2)n(C2CCC2)c2ncc(C3CC3)cc12 [Cpd 131, 6-(3-cyano-1-cyclobutyl-5-cyclopropyl-1H-pyrrolo[2,3-b]pyridin-2-yl)-N-(1,3-difluoropropan-2-yl)pyridine-3-sulfonamide] | – | < 500 |
| CC(C)NS(=O)(=O)c1ccc(-c2c(C#N)c3cc(C4CC4)cnc3n2C2CCC2)cn1 [Cpd 135, 5-(3-cyano-1-cyclobutyl-5-cyclopropyl-1H-pyrrolo[2,3-b]pyridin-2-yl)-N-(propan-2-yl)pyridine-2-sulfonamide] | – | < 500 |
| Cc1ccc2c(C#N)c(-c3ccc(S(=O)(=O)NC(C)(C)C(F)(F)F)cc3)n(C3CCC3)c2n1 [Cpd 139, 4-(3-cyano-1-cyclobutyl-6-methyl-1H-pyrrolo[2,3-b]pyridin-2-yl)-N-(1,1,1-trifluoro-2-methylpropan-2-yl)benzenesulfonamide] | – | 500 to 2000 |
| C[C@H](NS(=O)(=O)c1ccc(-c2c(C#N)c3ccc(C4CC4)nc3n2C2CCC2)cc1)C(F)(F)F [Cpd 149, 4-(3-cyano-1-cyclobutyl-6-cyclopropyl-1H-pyrrolo[2,3-b]pyridin-2-yl)-N-[(2S)-1,1,1-trifluoropropan-2-yl]benzenesulfonamide] | – | < 500 |
| C[C@@H](NS(=O)(=O)c1ccc(-c2c(C#N)c3ccc(C4CC4)nc3n2C2CCC2)cc1)C(F)(F)F [Cpd 150, 4-(3-cyano-1-cyclobutyl-6-cyclopropyl-1H-pyrrolo[2,3-b]pyridin-2-yl)-N-[(2R)-1,1,1-trifluoropropan-2-yl]benzenesulfonamide] | – | < 500 |
| C[C@H](NS(=O)(=O)c1cnc(-c2c(C#N)c3ccc(C4CC4)nc3n2C2CCC2)nc1)C(F)(F)F [Cpd 153, 2-(3-cyano-1-cyclobutyl-6-cyclopropyl-1H-pyrrolo[2,3-b]pyridin-2-yl)-N-[(2S)-1,1,1-trifluoropropan-2-yl]pyrimidine-5-sulfonamide] | – | < 500 |
| CCc1cnc2c(c1)c(C#N)c(-c1ccc(S(=O)(=O)N[C@@H](C)C(F)(F)F)cn1)n2C1CCC1 [Cpd 157, 6-(3-cyano-1-cyclobutyl-5-ethyl-1H-pyrrolo[2,3-b]pyridin-2-yl)-N-[(2S)-1,1,1-trifluoropropan-2-yl]pyridine-3-sulfonamide] | – | < 500 |
| CCc1cnc2c(c1)c(C#N)c(-c1ccc(S(=O)(=O)N[C@H](C)C(F)(F)F)cn1)n2C1CCC1 [Cpd 158, 6-(3-cyano-1-cyclobutyl-5-ethyl-1H-pyrrolo[2,3-b]pyridin-2-yl)-N-[(2R)-1,1,1-trifluoropropan-2-yl]pyridine-3-sulfonamide] | – | < 500 |
| CCc1cnc2c(c1)c(C#N)c(-c1ncc(S(=O)(=O)N[C@@H](C)C(F)(F)F)cn1)n2C1CCC1 [Cpd 159, 2-(3-cyano-1-cyclobutyl-5-ethyl-1H-pyrrolo[2,3-b]pyridin-2-yl)-N-[(2S)-1,1,1-trifluoropropan-2-yl]pyrimidine-5-sulfonamide] | – | < 500 |
| CCc1cnc2c(c1)c(C#N)c(-c1ncc(S(=O)(=O)N[C@H](C)C(F)(F)F)cn1)n2C1CCC1 [Cpd 160, 2-(3-cyano-1-cyclobutyl-5-ethyl-1H-pyrrolo[2,3-b]pyridin-2-yl)-N-[(2R)-1,1,1-trifluoropropan-2-yl]pyrimidine-5-sulfonamide] | – | < 500 |
| CCc1cnc2c(c1)c(C#N)c(-c1ccc(S(=O)(=O)NC(C)(C)C)cn1)n2C1CCC1 [Cpd 186, N-tert-butyl-6-(3-cyano-1-cyclobutyl-5-ethyl-1H-pyrrolo[2,3-b]pyridin-2-yl)pyridine-3-sulfonamide] | – | < 500 |
| CCc1cnc2c(c1)c(C#N)c(-c1ccc(S(=O)(=O)NC3(C)CC3)cn1)n2C1CCC1 [Cpd 188, 6-(3-cyano-1-cyclobutyl-5-ethyl-1H-pyrrolo[2,3-b]pyridin-2-yl)-N-(1-methylcyclopropyl)pyridine-3-sulfonamide] | – | < 500 |
| CCc1cnc2c(c1)c(C#N)c(-c1ncc(S(=O)(=O)NC3(C)CC3)cn1)n2C1CCC1 [Cpd 189, 2-(3-cyano-1-cyclobutyl-5-ethyl-1H-pyrrolo[2,3-b]pyridin-2-yl)-N-(1-methylcyclopropyl)pyrimidine-5-sulfonamide] | – | < 500 |
| CCc1cnc2c(c1)c(C#N)c(-c1ncc(S(=O)(=O)NC(CF)CF)cn1)n2C1CCC1 [Cpd 192, 2-(3-cyano-1-cyclobutyl-5-ethyl-1H-pyrrolo[2,3-b]pyridin-2-yl)-N-(1,3-difluoropropan-2-yl)pyrimidine-5-sulfonamide] | – | < 500 |
| CCc1cnc2c(c1)c(C#N)c(-c1ccc(S(=O)(=O)NC3CC3)cn1)n2C1CCC1 [Cpd 193, 6-(3-cyano-1-cyclobutyl-5-ethyl-1H-pyrrolo[2,3-b]pyridin-2-yl)-N-cyclopropylpyridine-3-sulfonamide] | – | < 500 |
